Assays:
[1] = tested on: rat; conditions: Sub-acute repeat dose toxicity, sprague dawley, Oral, Gavage/Intubation, dose end: 28 day
[2] = tested on: rat; conditions: Prenatal developmental toxicity study, sprague dawley, Oral, Gavage/Intubation, dose end: 15 GD
[3] = tested on: rat; conditions: Prenatal developmental toxicity study, sprague dawley, Oral, Gavage/Intubation, dose end: 19 GD
[4] = tested on: rat; conditions: Prenatal developmental toxicity study, sprague dawley, Oral, Gavage/Intubation, dose end: 15 GD; remark: listed apart in the source
[5] = tested on: rat; conditions: Multigenerational reproductive toxicity study, sprague dawley, Oral, Feed, dose end: 2 generation
[6] = tested on: rat; conditions: Prenatal developmental toxicity study, sprague dawley, Oral, Gavage/Intubation, dose end: 15 GD; remark: listed apart in the source
[7] = tested on: rabbit; conditions: Prenatal developmental toxicity study, new zealand white, Oral, Gavage/Intubation, dose end: 18 GD
[8] = group: maternal, reproductive / reproductive performance / estrous cycle / abnormal
[9] = group: systemic, systemic / clinical chemistry / alanine aminotransferase (alt/sgpt) / alanine aminotransferase (alt/sgpt) + systemic / clinical chemistry / …
[10] = group: systemic, systemic / organ weight / uterus / relative to body weight + systemic / organ weight / seminal vesicle / relative to body weight
[11] = group: developmental, developmental / developmental malformation / bone / incomplete ossification
[12] = group: maternal, systemic / in life observation / body weight / body weight gain + systemic / in life observation / food consumption / food consumption + …
[13] = group: developmental, developmental / developmental malformation / bone / unossified
[14] = group: maternal, reproductive / reproductive performance / postimplantation loss / postimplantation loss + reproductive / reproductive performance / …
[15] = group: developmental, developmental / developmental malformation / bone / enlarged fontanel + developmental / developmental malformation / bone / incomplete …
[16] = group: maternal, systemic / in life observation / clinical signs / motor activity + systemic / in life observation / clinical signs / respiration (rales) + …
[17] = group: offspring, developmental / offspring survival late / lactation index / lactation index + developmental / offspring survival late / viability index / …
[18] = group: parental, systemic / in life observation / body weight / body weight + systemic / in life observation / body weight / body weight gain
[19] = group: parental, systemic / in life observation / body weight / body weight + systemic / in life observation / body weight / body weight gain + systemic / in…
[20] = group: developmental, developmental / developmental malformation / bone / full supernumerary + developmental / developmental malformation / diaphragm / …
[21] = group: maternal, systemic / in life observation / body weight / body weight gain + systemic / in life observation / clinical signs / discharge on cageboard…
[22] = group: developmental, developmental / developmental malformation / bone / full supernumerary + developmental / developmental malformation / bone / incomplete …
[23] = group: maternal, reproductive / reproductive performance / postimplantation loss / postimplantation loss + systemic / in life observation / clinical signs / …

SMILES: CC(=O)N1CCN(c2ccc(OC[C@@H]3CO[C@@](Cn4ccnc4)(c4ccc(Cl)cc4Cl)O3)cc2)CC1 [Ketoconazole]
- LEL [1, 8]: 100 mg/kg/day
- LOAEL [1, 8]: > 100 mg/kg/day
- NEL [1, 8]: 25 mg/kg/day
- NOAEL [1, 8]: ≥ 100 mg/kg/day
- LOAEL [1, 9]: > 100 mg/kg/day
- NOAEL [1, 9]: ≥ 100 mg/kg/day
- LEL [1, 10]: 6.25 mg/kg/day
- NEL [1, 10]: < 6.25 mg/kg/day

SMILES: CCCCCCC(C)OC(=O)COc1nc(F)c(Cl)c(N)c1Cl (centres undefined) [Fluroxypyr-meptyl]
- LEL [2, 11]: > 600 mg/kg/day
- LOAEL [2, 11]: > 600 mg/kg/day
- NEL [2, 11]: ≥ 600 mg/kg/day
- NOAEL [2, 11]: ≥ 600 mg/kg/day
- LEL [2, 12]: 600 mg/kg/day
- LOAEL [2, 12]: 600 mg/kg/day
- NEL [2, 12]: 300 mg/kg/day
- NOAEL [2, 12]: 300 mg/kg/day

SMILES: CC#N [Acetonitrile]
- LEL [3, 13]: 275 mg/kg/day
- LOAEL [3, 13]: > 275 mg/kg/day
- NEL [3, 13]: 190 mg/kg/day
- NOAEL [3, 13]: ≥ 275 mg/kg/day
- LEL [3, 14]: 275 mg/kg/day
- LOAEL [3, 14]: > 275 mg/kg/day
- NEL [3, 14]: 190 mg/kg/day
- NOAEL [3, 14]: ≥ 275 mg/kg/day

SMILES: CC1COC(=O)O1 (centres undefined) [Propylene carbonate]
- LEL [4, 15]: 5000 mg/kg/day
- LOAEL [4, 15]: 5000 mg/kg/day
- NEL [4, 15]: 3000 mg/kg/day
- NOAEL [4, 15]: 3000 mg/kg/day
- LEL [4, 16]: 3000 mg/kg/day
- LOAEL [4, 16]: 3000 mg/kg/day
- NEL [4, 16]: 1000 mg/kg/day
- NOAEL [4, 16]: 1000 mg/kg/day

SMILES: CCOC(=O)C1CC(=O)C(=C(O)C2CC2)C(=O)C1 (centres undefined) [Trinexapac-ethyl]
- LEL [5, 17]: 1250 mg/kg/day
- NEL [5, 17]: 592 mg/kg/day
- LEL [5, 18]: 592 mg/kg/day
- LOAEL [5, 18]: 592 mg/kg/day
- NEL [5, 19]: 59.1 mg/kg/day
- NOAEL [5, 19]: 59.1 mg/kg/day

SMILES: CCCCOCCOC(=O)COc1nc(Cl)c(Cl)cc1Cl [Triclopyr-butotyl]
- LEL [6, 20]: 300 mg/kg/day
- LOAEL [6, 20]: > 300 mg/kg/day
- NEL [6, 20]: 100 mg/kg/day
- NOAEL [6, 20]: ≥ 300 mg/kg/day
- LEL ([6]; group: maternal, systemic / in life observation / body weight / body weight gain): 30 mg/kg/day
- LOAEL [6, 21]: > 300 mg/kg/day
- NEL [6, 21]: 5 mg/kg/day
- NOAEL [6, 21]: ≥ 300 mg/kg/day
- LEL [7, 22]: 100 mg/kg/day
- LOAEL [7, 22]: 100 mg/kg/day
- NEL [7, 22]: 30 mg/kg/day
- NOAEL [7, 22]: 30 mg/kg/day
- LEL [7, 23]: 100 mg/kg/day
- LOAEL [7, 23]: 100 mg/kg/day
- NEL [7, 23]: 30 mg/kg/day
- NOAEL [7, 23]: 30 mg/kg/day

From EPA's ToxRefDB 2
